Data on 41 molecules can be found in ChEMBL document CHEMBL1149662, “Design and synthesis of a library of tertiary amides: evaluation as mimetics of the melanocortins' active core” (Bioorg Med Chem, 2007).

In one experiment the target is Melanocortin receptor 4 (Homo sapiens, UniProt P32245). Kind of experiment: Displacement of [125I]NDP-MSH from human recombinant MC4 receptor expressed in Sf9 cells. On the technique in general: In a radioligand displacement assay an active substance lowers the binding of a labelled ligand.
Sequence of Melanocortin receptor 4 (P32245 whole entry): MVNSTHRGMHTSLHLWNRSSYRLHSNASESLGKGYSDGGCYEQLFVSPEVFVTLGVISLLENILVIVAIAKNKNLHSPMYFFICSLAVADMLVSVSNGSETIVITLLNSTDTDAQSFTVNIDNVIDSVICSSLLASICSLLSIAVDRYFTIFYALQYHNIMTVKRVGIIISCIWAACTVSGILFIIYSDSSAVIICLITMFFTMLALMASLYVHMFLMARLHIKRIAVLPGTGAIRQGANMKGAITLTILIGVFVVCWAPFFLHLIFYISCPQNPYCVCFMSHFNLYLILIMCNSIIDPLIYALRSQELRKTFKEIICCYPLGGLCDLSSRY
The next experiment has as its target Melanocortin receptor 3 (Homo sapiens, UniProt P41968). Kind of experiment: Displacement of [125I]NDP-MSH from human recombinant MC3 receptor expressed in Sf9 cells.
Experiment [1] addresses Melanocyte-stimulating hormone receptor (Mus musculus, UniProt Q01727). Kind of experiment: Displacement of [125I]NDP-MSH from MC1 receptor in mouse B16 cells. The format is cell-based.
The target in the next experiment is Melanocortin receptor 5 (Homo sapiens, UniProt P33032). Kind of experiment: Displacement of [125I]NDP-MSH from human recombinant MC5 receptor expressed in Sf9 cells.
Sequence of Melanocortin receptor 5 (P33032 whole entry): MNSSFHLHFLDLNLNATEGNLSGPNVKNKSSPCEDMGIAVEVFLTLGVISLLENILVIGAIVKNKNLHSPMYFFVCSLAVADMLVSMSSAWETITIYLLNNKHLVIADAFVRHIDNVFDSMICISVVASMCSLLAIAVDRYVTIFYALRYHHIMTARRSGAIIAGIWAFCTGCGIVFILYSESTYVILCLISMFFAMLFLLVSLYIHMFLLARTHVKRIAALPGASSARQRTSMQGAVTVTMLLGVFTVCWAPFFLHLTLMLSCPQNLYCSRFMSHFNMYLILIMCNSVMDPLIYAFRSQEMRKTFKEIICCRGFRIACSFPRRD

The term Ki denotes the dissociation constant of the complex between target and ligand, obtained from inhibition or displacement.

Sequence of Melanocyte-stimulating hormone receptor (Q01727 whole entry): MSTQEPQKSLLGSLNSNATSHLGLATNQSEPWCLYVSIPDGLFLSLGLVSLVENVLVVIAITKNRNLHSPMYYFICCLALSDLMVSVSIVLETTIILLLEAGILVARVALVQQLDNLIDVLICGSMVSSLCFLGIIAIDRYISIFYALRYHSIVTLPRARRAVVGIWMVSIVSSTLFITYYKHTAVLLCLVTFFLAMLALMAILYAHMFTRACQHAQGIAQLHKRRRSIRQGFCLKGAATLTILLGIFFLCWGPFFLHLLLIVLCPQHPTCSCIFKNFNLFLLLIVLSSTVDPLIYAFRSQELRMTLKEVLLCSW
Sequence of Melanocortin receptor 3 (P41968 whole entry): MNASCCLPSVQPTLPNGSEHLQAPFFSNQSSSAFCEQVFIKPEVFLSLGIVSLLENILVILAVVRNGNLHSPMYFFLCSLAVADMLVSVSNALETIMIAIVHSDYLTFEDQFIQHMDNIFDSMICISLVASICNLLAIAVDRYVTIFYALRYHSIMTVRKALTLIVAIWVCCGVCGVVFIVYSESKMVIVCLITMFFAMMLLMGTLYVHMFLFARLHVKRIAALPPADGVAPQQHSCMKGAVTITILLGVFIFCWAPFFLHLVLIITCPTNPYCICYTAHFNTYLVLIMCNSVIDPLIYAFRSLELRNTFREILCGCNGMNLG

Consider `N=C(N)NCCN(Cc1ccc2ccccc2c1)C(=O)Cc1c[nH]c2ccccc12`, for which the Ki at Melanocortin receptor 4 was 179 µM; at Melanocortin receptor 3, 57 µM; in experiment [1] it was 19 µM; on Melanocortin receptor 5 it was 15 µM.
Taken in the same sequence, the figures for `CCOc1cc(CN(C(=O)CCCc2c(Cc3ccc(O)cc3)[nH]c3ccccc23)C2CCC(CC3CCC(N)CC3)CC2)ccc1OC` (centres undefined) were 2.1 µM, 26 µM, 2.1 µM and 12 µM.
For `NC1CCC(CC2CCC(N(Cc3c(Cl)cccc3Cl)C(=O)CCCc3c(Cc4ccc(O)cc4)[nH]c4ccccc34)CC2)CC1` (centres undefined), in that order: 5.3 µM, 27 µM, 1.6 µM and 22 µM.
Taken in the same sequence, the figures for `C/C(=C\c1ccccc1)CN(CCCN)C(=O)C(=O)c1c[nH]c2ccccc12` were 6.2 µM, 9.1 µM, 1.8 µM and 58 µM.
For the molecule `N=C(N)NC1CCC(CC2CCC(N(C/C(Cl)=C/c3ccccc3)C(=O)CCCc3c[nH]c4ccccc34)CC2)CC1` (stereo in doubt; form 1), the Ki stood at 4 µM at Melanocortin receptor 4, 9.6 µM at Melanocortin receptor 3, 5.4 µM in experiment [1] and 24 µM at Melanocortin receptor 5.
For `CC(C)N(CCCCN)C(=O)c1c[nH]c2ccccc12`, the Ki on Melanocortin receptor 4 amounted to 222 µM; at Melanocortin receptor 3, 112 µM; in experiment [1] it was 106 µM; at Melanocortin receptor 5, 279 µM.
Taken in the same sequence, the figures for `NC1CCC(CC2CCC(N(Cc3ccccn3)C(=O)CCCc3c[nH]c4ccccc34)CC2)CC1` (centres undefined) were 5.6 µM, 39 µM, 4.6 µM and 49 µM.
Taken in the same sequence, the figures for `NC1CCC(CC2CCC(N(C(=O)CCCc3c[nH]c4ccccc34)C3CCc4ccccc4C3)CC2)CC1` (centres undefined) were 12 µM, 278 µM, 4.5 µM and 44 µM.
Regarding `NCc1cccc(CN(Cc2ccc3ccccc3c2)C(=O)CCCc2c[nH]c3ccccc23)c1`, the Ki was 7.7 µM on Melanocortin receptor 4, 17 µM at Melanocortin receptor 3, 1.5 µM in experiment [1] and 6.4 µM on Melanocortin receptor 5.
Regarding `NCCCCCN(C(=O)Cc1c[nH]c2ccccc12)C1CCCCCC1`, the Ki stood at 16 µM on Melanocortin receptor 4, 14 µM at Melanocortin receptor 3, 6 µM in experiment [1] and 35 µM on Melanocortin receptor 5.
Taken in the same sequence, the figures for `NC1CCCC(N(C/C(Cl)=C/c2ccccc2)C(=O)CCCc2c[nH]c3ccccc23)C1` (centres undefined) were 2.1 µM, 29 µM, 2.8 µM and 10 µM.
For `N=C(N)NCCCN(Cc1ccc2ccccc2c1)C(=O)Cc1c[nH]c2ccccc12`, in that order: 150 µM, 228 µM, 35 µM and 28 µM.
For `NC1CCC(CC2CCC(N(Cc3ccccc3Br)C(=O)CCCc3c[nH]c4ccccc34)CC2)CC1` (centres undefined), in that order: 4.4 µM, 80 µM, 3.6 µM and 9.1 µM.
Regarding `NCCCCCN(Cc1ccccc1)C(=O)[C@@H](N)Cc1c[nH]c2ccccc12`, the Ki turned out to be 44 µM on Melanocortin receptor 4, 43 µM on Melanocortin receptor 3, 34 µM in experiment [1] and 54 µM at Melanocortin receptor 5.
Taken in the same sequence, the figures for `CCC(c1ccccc1)N(CCCCN)C(=O)CCc1c[nH]c2ccccc12` (centres undefined) were 158 µM, 38 µM, 15 µM and 13 µM.
On to `NC1CCC(CC2CCC(N(Cc3c(Cl)cccc3Cl)C(=O)CCCc3c[nH]c4ccccc34)CC2)CC1` (centres undefined), for which the Ki at Melanocortin receptor 4 is 2.6 µM; on Melanocortin receptor 3, 25 µM; in experiment [1], 2.5 µM; at Melanocortin receptor 5 it was 7.2 µM.
Turning to `NCCCN(Cc1ccccc1)C(=O)CCCc1c[nH]c2ccccc12`, the inhibitory constant (Ki) on Melanocortin receptor 4 amounted to 16 µM; at Melanocortin receptor 3, 45 µM; in experiment [1] it was 17 µM; on Melanocortin receptor 5, 25 µM.
For `CC1CC(CC2CCC(N(C/C(Cl)=C/c3ccccc3)C(=O)CCCc3c[nH]c4ccccc34)C(C)C2)CCC1N` (stereo in doubt; form 1), in that order: 7.7 µM, 64 µM, 5.6 µM and 9.1 µM.
For `NC1CCC(CC2CCC(N(Cc3ccccc3Cl)C(=O)CCCc3c(Cc4ccc(O)cc4)[nH]c4ccccc34)CC2)CC1` (centres undefined), in that order: 14 µM, 26 µM, 6.6 µM and 97 µM.
Turning to `CCCCCN(Cc1ccc(N(CC)CC)cc1)C(=O)CCCc1c[nH]c2ccccc12`, the Ki on Melanocortin receptor 4 stood at 78 µM; at Melanocortin receptor 3, 289 µM; in experiment [1] it was 72 µM; at Melanocortin receptor 5 it was 408 µM.
Taken in the same sequence, the figures for `NCCCCCN(C/C(Cl)=C\c1ccccc1)C(=O)/C=C/c1c[nH]c2ccccc12` were 59 µM, 27 µM, 2.7 µM and 5.4 µM.
Taken in the same sequence, the figures for `NCCCN(C(=O)c1c[nH]c2ccccc12)C1CCc2ccccc2C1` (centres undefined) were 74 µM, 131 µM, 4.8 µM and 23 µM.
Taken in the same sequence, the figures for `N=C(N)NCCCCN(Cc1ccc2ccccc2c1)C(=O)CCCc1c[nH]c2ccccc12` were 96 µM, 134 µM, 3.2 µM and 11 µM.
Turning to `N[C@H]1CC[C@H](NC(=O)NC2CCCC(N(Cc3ccccc3)C(=O)CCCc3c[nH]c4ccccc34)C2)CC1` (some centres undefined), the Ki on Melanocortin receptor 4 stood at 7.3 µM; at Melanocortin receptor 3 it was 59 µM; in experiment [1], 2.7 µM; on Melanocortin receptor 5, 37 µM.
Taken in the same sequence, the figures for `N[C@H]1CC[C@H](NC(=O)N[C@H]2CC[C@H](N(Cc3ccccc3)C(=O)CCCc3c[nH]c4ccccc34)CC2)CC1` were 25 µM, 99 µM, 11 µM and 176 µM.
For the molecule `NCCCN(C/C(Cl)=C/c1ccccc1)C(=O)CCCc1c[nH]c2ccccc12`, the Ki turned out to be 7 µM at Melanocortin receptor 4, 18 µM at Melanocortin receptor 3, 6.1 µM in experiment [1] and 31 µM on Melanocortin receptor 5.
In the case of `NCCCN(Cc1ccc2ccccc2c1)C(=O)Cc1ccc2ccccc2c1`, the Ki was found to be 16 µM at Melanocortin receptor 4, 12 µM at Melanocortin receptor 3, 5.9 µM in experiment [1] and 267 µM on Melanocortin receptor 5.
Taken in the same sequence, the figures for `COc1ccc(CN(C(=O)CCCc2c[nH]c3ccccc23)C2CCC(CC3CCC(N)CC3)CC2)cc1Br` (centres undefined) were 4.8 µM, 9.3 µM, 2.9 µM and 278 µM.
For `NCCCCCCCN(C/C(Cl)=C/c1ccccc1)C(=O)CCCc1c[nH]c2ccccc12`, the Ki was found to be 7.4 µM at Melanocortin receptor 4, 42 µM at Melanocortin receptor 3, 5 µM in experiment [1] and 29 µM at Melanocortin receptor 5.
Taken in the same sequence, the figures for `NC1CCC(CC2CCC(N(C/C(Cl)=C/c3ccccc3)C(=O)COc3ccc4ccccc4c3)CC2)CC1` (stereo in doubt; form 8) were 3.7 µM, 62 µM, 1.6 µM and 42 µM.
Taken in the same sequence, the figures for `NCCN(C(=O)CCCc1c[nH]c2ccccc12)C1CCC2(CCCCC2)CC1` were 10 µM, 2.7 µM, 3.2 µM and 12 µM.
For the molecule `COc1cc(Br)c(CN(C(=O)CCCc2c(Cc3ccc(O)cc3)[nH]c3ccccc23)[C@H]2CC[C@@H](C[C@H]3CC[C@H](N)CC3)CC2)cc1OC`, the inhibition constant (Ki) on Melanocortin receptor 4 is 7.4 µM; at Melanocortin receptor 3, 5.4 µM; in experiment [1], 2.9 µM; at Melanocortin receptor 5, 9.1 µM.
For `NCCCCCCCN(Cc1ccccc1)C(=O)CCCc1c[nH]c2ccccc12`, in that order: 3.8 µM, 28 µM, 4 µM and 3.2 µM.
Taken in the same sequence, the figures for `COc1ccccc1/C=C/CN(C(=O)CCCc1c[nH]c2ccccc12)C1CCC(CC2CCC(N)CC2)CC1` (stereo in doubt; form 1) were 4.9 µM, 17 µM, 1.5 µM and 7.5 µM.
Taken in the same sequence, the figures for `CC1CC(CC2CCC(N(Cc3ccccc3)C(=O)CCCc3c[nH]c4ccccc34)C(C)C2)CCC1N` (stereo in doubt; form 2) were 3.2 µM, 22 µM, 0.87 µM and 4.8 µM.
On to `NC1CCC(CC2CCC(N(C/C(Cl)=C/c3ccccc3)C(=O)CCCc3c[nH]c4ccccc34)CC2)CC1` (stereo in doubt; form 2), for which the Ki is 2 µM on Melanocortin receptor 4, 17 µM on Melanocortin receptor 3, 0.96 µM in experiment [1] and 8.7 µM on Melanocortin receptor 5.
As for `NCCCCCN(C/C=C\c1ccccc1)C(=O)CCCc1c[nH]c2ccccc12`, the Ki was found to be 16 µM at Melanocortin receptor 4, 36 µM at Melanocortin receptor 3, 3 µM in experiment [1] and 2.2 µM on Melanocortin receptor 5.
For `NCCCN(C(=O)c1cc2cc(OCc3ccccc3)ccc2[nH]1)C1CCc2ccccc2C1` (centres undefined), in that order: 21 µM, 542 µM, 26 µM and 681 µM.
For `NCc1ccc(CN(Cc2ccc3ccccc3c2)C(=O)CCCc2c[nH]c3ccccc23)cc1`, in that order: 11 µM, 40 µM, 4 µM and 17 µM.
For `COc1cc(Cl)c(CN(C(=O)CCCc2c[nH]c3ccccc23)C2CCC(CC3CCC(N)CC3)CC2)cc1OC` (stereo in doubt; form 2), in that order: 1.5 µM, 25 µM, 1.9 µM and 8.9 µM.
For `CC(C)N(CCCCN)C(=O)c1c(Cc2ccc(O)cc2)[nH]c2ccccc12`, the Ki on Melanocortin receptor 4 was determined as 165 µM; at Melanocortin receptor 3 it was 106 µM; in experiment [1], 90 µM; on Melanocortin receptor 5, 353 µM.
